Reference: the supplement of paper PMC10307832

Legend:
Assay in all cases: relative viability (nuclei count vs DMSO), 5 days (fraction); higher = more cells survive
[1] = compound: CC1=C(C(=NN1)C)CC2=C(C3=C(S2)N(C(=O)N(C3=O)C)CC(C)C)C(=O)N4C[C@@H](CO4)O + C[C@@H](Oc1cc(-c2cnn(C3CCNCC3)c2)cnc1N)c1c(Cl)ccc(F)c1Cl [Crizotinib] (partner 1 µM)
Procedure, shortened: (§1)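 Lung cancer cell lines in 1536-well plates were dosed by pin tool the day after seeding, either with one drug alone or with a fixed anchor-drug dose plus five library-drug doses (not always all listed) in √10 steps. After 5 days, cells were fixed and their nuclei stained in one step (final 0.05% Triton X-100, 1% formaldehyde, 1 ug/ml Hoechst), then counted on 4× images. Relative viability is the nuclei count in treated wells divided by that in vehicle wells. Values are medians of duplicate plates.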

[2] = compound: CC1=C(C(=NN1)C)CC2=C(C3=C(S2)N(C(=O)N(C3=O)C)CC(C)C)C(=O)N4C[C@@H](CO4)O + CCNC(=O)c1noc(-c2cc(C(C)C)c(O)cc2O)c1-c1ccc(CN2CCOCC2)cc1 [Luminespib] (partner 0.01 µM)
Procedure, shortened: as §1

[3] = compound: CC1=C(C(=NN1)C)CC2=C(C3=C(S2)N(C(=O)N(C3=O)C)CC(C)C)C(=O)N4C[C@@H](CO4)O + Nc1nc2[nH]cc(CCc3ccc(C(=O)N[C@@H](CCC(=O)O)C(=O)O)cc3)c2c(=O)[nH]1 [Pemetrexed] (partner 0.2 µM)
Procedure, shortened: as §1

IDH-C35 + OSI-027 = compound: Cc1ccccc1C(C(=O)NC1CCCCC1)N(C(=O)Cn1ccnc1C)c1cccc(F)c1 [IDH-C35] + COc1cccc2cc(-c3nc([C@H]4CC[C@H](C(=O)O)CC4)n4ncnc(N)c34)[nH]c12 [OSI-027] (partner 0.5 µM)
Procedure, shortened: as §1

Cell Line	relative viability ([1]; first compound 0.0025 µM)	relative viability ([1]; first compound 0.007906 µM)	relative viability ([1]; first compound 0.025 µM)	relative viability ([1]; first compound 0.07906 µM)	relative viability ([1]; first compound 0.25 µM)	relative viability ([2]; first compound 0.0025 µM)	relative viability ([2]; first compound 0.007906 µM)	relative viability ([2]; first compound 0.025 µM)	relative viability ([2]; first compound 0.07906 µM)	relative viability ([2]; first compound 0.25 µM)	relative viability ([3]; first compound 0.0025 µM)	relative viability ([3]; first compound 0.007906 µM)	relative viability ([3]; first compound 0.025 µM)	relative viability ([3]; first compound 0.07906 µM)	relative viability ([3]; first compound 0.25 µM)	relative viability (IDH-C35 + OSI-027; first compound 0.08 µM)	relative viability (IDH-C35 + OSI-027; first compound 0.253 µM)	relative viability (IDH-C35 + OSI-027; first compound 0.8 µM)	relative viability (IDH-C35 + OSI-027; first compound 2.53 µM)	relative viability (IDH-C35 + OSI-027; first compound 8 µM)
EBC-1	0.219	0.182	0.191	0.214	0.184	–	–	–	–	–	–	–	–	–	–	–	–	–	–	–
EKVX	1.09	1.11	0.988	0.962	0.992	0.948	0.955	0.852	0.764	0.928	0.365	0.429	0.412	0.293	0.422	0.752	0.641	0.646	0.657	0.68
EMC-BAC-2	0.806	0.866	0.753	0.788	0.866	1.17	1.23	1.2	1.32	1.29	0.46	0.468	0.415	0.44	0.454	0.364	0.366	0.383	0.39	0.385
EPLC-272H	0.821	0.863	0.904	0.773	1.1	0.738	0.197	0.235	0.498	0.417	0.356	0.333	0.41	0.301	0.348	0.26	0.282	0.268	0.273	0.257
H3255	0.924	0.902	0.817	0.816	0.926	0.953	1.04	0.861	0.944	0.887	0.632	0.576	0.496	0.618	0.563	0.554	0.534	0.581	0.661	0.647
HARA	1.09	1.19	0.915	0.987	1.04	0.847	1.12	0.726	0.543	0.933	0.218	0.215	0.262	0.273	0.255	0.607	0.735	0.484	–	0.405
HCC-15	0.826	0.71	0.781	0.757	0.947	0.378	0.518	0.236	0.43	0.337	0.214	0.214	0.225	0.215	0.211	0.632	0.656	0.614	–	0.604
HCC-44	0.765	0.843	0.88	0.811	0.929	0.97	1.11	1.03	0.958	1.38	0.633	0.643	0.675	0.599	0.694	0.538	0.641	0.595	0.61	0.625
HCC-78	0.444	0.316	0.342	0.371	0.322	–	–	–	–	–	0.904	0.887	0.897	0.951	0.925	0.349	0.362	0.633	0.388	0.332
